Laboratory results reported in patent US12116356B2, “N-heterocyclic five-membered ring-containing capsid protein assembly inhibitor, pharmaceutical composition thereof, and use thereof” (CHIA TAI TIANQING PHARMACEUTICAL GROUP CO., LTD., priority 2018, dated 2024).

Tests used:
HBV DNA in HepAD38 cells = assay: In vitro cell HBV DNA inhibitory activity (anti-HBV activity) in HepAD38 cells; format: cell-based; conditions: Hepatitis B virus, 144 h; anti-HBV activity in HepAD38 cells, 6 days treatment, intracellular capsid HBV DNA by qPCR; read-out: EC50
Procedure: A bottle of HepG2.2.15 or HepAD38 cells in good exponential growth state was taken, washed once by adding 5 mL PBS, and then thereto was added 3 mL trypsin. After digesting at room temperature for 5 min, 2 mL trypsin was discarded, and then the sample was placed in a cell culture incubator and digested for 10 min. The cells were taken out from time to time and observed under a microscope (whether the cells were individually round and there was no adhesion between the cells). 10 mL complete medium was added to terminate the digestion. After pipetting into a single cell suspension, 10 μL of the cell suspension was taken out for cell counting with a cell counter, and then diluted with a complete medium and adjusted to a cell density of 1*10^5 cells/mL. Then the cell suspension was seeded at 1 mL/well in a 24-well plate with a multi-channel pipette (the 24-well plate was coated with 50 μg/mL Collagen I solution in advance), and cultured in a constant temperature CO2 incubator for 48 h.
Different compounds dissolved in DMSO were subjected to two-fold gradient dilution (10 concentrations in total) with complete medium. The compound was added, and fresh medium containing the compound was used to replace the spent medium every 72 hours. The cells were treated with the compound for 6 days. After the supernatant was siphoned off, 300 μL lysate (10 mM Tris-HCl, 1 mM EDTA, and 1% NP-40) was added to each well. After lysing at room temperature for 10 min, DNA was extracted, and HBV DNA in the intracellular viral capsid was measured by real-time fluorescence quantitative PCR. The inhibition rate was calculated based on the Ct value, and the EC50 value was calculated by the four-parameter method.

[1] = In vivo pharmacokinetics (PK) study in mice; conditions: ICR mice, po 30 mg/kg
Procedure: ICR mice, weighing 18-20 g, were randomly divided into groups of three mice each after 3 to 5 days' acclimatization, and a series of the compounds were administered intragastrically to each group at a dose of 30 mg/kg. The test animals (ICR mice) were fasted for 12 hours before the administration and fed 4 hours after the administration. They were free to access water before and after the experiment. After the intragastric administration, about 0.1 mL of blood was collected from the orbits. Within 30 minutes after anticoagulation with EDTA-K2, the plasma was separated by centrifugation at 4° C. and 4000 rpm for 10 minutes. Immediately after collecting all plasma, it was stored at −20° C. for testing. 20 μL of the plasma sample to be tested and standard curve sample were pipetted, and then thereto was added 200 μL of an acetonitrile solution containing an internal standard (diazepam 20 mg/mL). The resulting mixture was oscillated and mixed uniformly for 5 min, and then centrifugated at 12000 rpm for 10 min. 75 μL supernatant was pipetted, and 75 μL ultrapure water was added thereto for dilution, and mixed evenly. 1 μL of the resulting solution was pipetted for LC/MS/MS determination.

SMILES: Cc1c(C(=O)Nc2ccc(F)c(C#N)c2)c(C)n(C)c1C(=O)C(=O)NC(C)(C)C [Example 13, 5-(2-(tert-butylamino)-2-oxoacetyl)-N-(3-cyano-4-fluorophenyl)-1,2,4-trimethyl-1H-pyrrole-3-carboxamide]
- EC50 (HBV DNA in HepAD38 cells): < 10 nM
- Liver AUC(0-6 h) ([1]; 0.25 h, 1 h, 6 h): 5834 ng/g
- Plasma AUC(0-6 h) ([1]; blood at 0.25 h, 1 h, 6 h): 1759 ng/mL
- Kp ([1]; mouse, liver/blood, AUC(0-6 h), read-out: Liver to blood ratio): 3.32
